Laboratory results published in US12084472B2 (Ardelyx, Inc., priority 2015, dated 2024).

target: T1, human TGR5 (Homo sapiens, UniProt Q8TDU6); experiment: Cell-based TGR5 assay (cAMP generation, HTRF); details: HEK293 cells stably transfected with human TGR5; cAMP by HTRF; 30 minutes at 37° C.; read-out: pEC50 Human TGR5 (converted)
T1 construct: expressed in transfected cells; host or cells: HEK293
T1 sequence (Q8TDU6 1-330): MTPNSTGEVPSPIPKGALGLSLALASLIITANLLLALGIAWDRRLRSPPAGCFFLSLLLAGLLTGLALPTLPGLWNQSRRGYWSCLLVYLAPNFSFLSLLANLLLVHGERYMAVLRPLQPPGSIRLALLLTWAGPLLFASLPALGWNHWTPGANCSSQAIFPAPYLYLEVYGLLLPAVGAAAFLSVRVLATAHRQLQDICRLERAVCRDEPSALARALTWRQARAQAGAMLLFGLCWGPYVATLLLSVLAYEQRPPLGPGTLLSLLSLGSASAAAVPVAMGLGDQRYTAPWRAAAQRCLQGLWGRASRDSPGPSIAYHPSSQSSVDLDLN
Outline: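 First, compounds in 3-fold serial dilution were placed in HBSS with 10 mM HEPES pH 7.4 and 0.5 mM IBMX. Next, human TGR5-expressing HEK293 cells were added and incubated 30 min at 37° C. Finally, cAMP was detected by HTRF and pEC50 derived by logistic fitting.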

Row | EC50 [nM] | SMILES
1 | < 100 | O=C(NC[C@H](O)[C@@H](O)[C@H](O)[C@H](O)CO)[C@H]1[C@@H]2CN(S(=O)(=O)c3ccc(Cl)c(COC4(c5cnccc5-c5ccccc5OC5CC5)CC4)c3)C[C@@H]21 [Compound I-435, (1R,5S,6S)-3-[4-chloro-3-({1-[4-(2-cyclopropoxyphenyl)pyridin-3-yl]cyclopropoxy}methyl)benzenesulfonyl]-N-[(2S,3R,4R,5R)-2,3,4,5,6-pentahydroxyhexyl]-3-azabicyclo[3.1.0]hexane-6-carboxamide]
2 | < 100 | Clc1ccc(Cl)c(COC2(c3cnccc3-c3ccccc3OC3CC3)COC2)c1 [Compound I-59, 4-(2-cyclopropoxyphenyl)-3-[3-[(2,5-dichlorophenyl)methoxy]oxetan-3-yl]pyridine]
3 | 126 to 1000 | O=C(NCCCCCOc1ccc(Cl)c(COC2(c3cnccc3-c3ccccc3OC3CC3)CC2)c1)NC[C@H](O)[C@@H](O)[C@H](O)[C@H](O)CO [Compound I-726, 1-(5-(4-chloro-3-((1-(4-(2-cyclopropoxyphenyl)pyridin-3-yl)cyclopropoxy)methyl)phenoxy)pentyl)-3-((2S,3R,4R,5R)-2,3,4,5,6-pentahydroxyhexyl)urea]
4 | 126 to 1000 | Clc1ccc(COC2(c3cnccc3-c3ccccc3OC3CC3)CC2)c(Cl)c1 [Compound I-48, 4-(2-cyclopropoxyphenyl)-3-{1-[(2,4-dichlorophenyl)methoxy]cyclopropyl}pyridine]
5 | < 100 | O=C(NCCCCCSc1ccc(Cl)c(COC2(c3cnccc3-c3ccccc3OC3CC3)CC2)c1)N[C@@H](CO)[C@@H](O)[C@H](O)[C@H](O)CO [Compound I-636, 1-(5-{[4-chloro-3-({1-[4-(2-cyclopropoxyphenyl)pyridin-3-yl]cyclopropoxy}methyl)phenyl]sulfanyl}pentyl)-3-[(2S,3R,4S,5R)-1,3,4,5,6-pentahydroxyhexan-2-yl]urea]
6 | < 100 | Cc1ccc(C(C)CCCC(=O)N(C)C[C@H](O)[C@@H](O)[C@H](O)[C@H](O)CO)cc1CNC1(c2cnccc2-c2ccccc2OC2CC2)CC1 (stereo partly drawn) [Compound I-352, 5-{3-[({1-[4-(2-cyclopropoxyphenyl)pyridin-3-yl]cyclopropyl}amino)methyl]-4-methylphenyl}-N-methyl-N-[(2S,3R,4R,5R)-2,3,4,5,6-pentahydroxyhexyl]hexanamide]
7 | 126 to 1000 | CNS(=O)(=O)CCN(C[C@H](O)[C@@H](O)[C@H](O)[C@H](O)CO)C(=O)CCCSc1ccc(Cl)c(COC2(c3cnccc3-c3ccccc3OC3CC3)CC2)c1 [Compound I-694, 4-{[4-chloro-3-({1-[4-(2-cyclopropoxyphenyl)pyridin-3-yl]cyclopropoxy}methyl)phenyl]sulfanyl}-N-[2-(methylsulfamoyl)ethyl]-N-[(2S,3R,4R,5R)-2,3,4,5,6-pentahydroxyhexyl]butanamide]
8 | < 100 | CC(CCCCN(C)C(=O)[C@@H](O)[C@@H](O)[C@H](O)[C@@H](O)CO)c1ccc(Cl)c(CNC2(c3cnccc3-c3ccccc3OC3CC3)CC2)c1 (stereo partly drawn) [Compound I-281, (2S,3S,4R,5S)-N-(5-{4-chloro-3-[({1-[4-(2-cyclopropoxyphenyl)pyridin-3-yl]cyclopropyl}amino)methyl]phenyl}hexyl)-2,3,4,5,6-pentahydroxy-N-methylhexanamide]
9 | < 100 | CC(=O)N(CCCCC(C)c1ccc(Cl)c(CNC2(c3cnccc3-c3ccccc3OC3CC3)CC2)c1)C[C@H](O)[C@@H](O)[C@H](O)[C@H](O)CO (stereo partly drawn) [Compound I-378, N-(5-{4-chloro-3-[({1-[4-(2-cyclopropoxyphenyl)pyridin-3-yl]cyclopropyl}amino)methyl]phenyl}hexyl)-N-[(2S,3R,4R,5R)-2,3,4,5,6-pentahydroxyhexyl]acetamide]
10 | < 100 | O=C(CN1CCC(NC(=O)NCCCCCSc2ccc(Cl)c(COC3(c4cnccc4-c4ccccc4OC4CC4)CC3)c2)CC1)NC[C@H](O)[C@@H](O)[C@H](O)[C@H](O)CO [Compound I-631, 2-(4-{[(5-{[4-chloro-3-({1-[4-(2-cyclopropoxyphenyl)pyridin-3-yl]cyclopropoxy}methyl)phenyl]sulfanyl}pentyl)carbamoyl]amino}piperidin-1-yl)-N-[(2S,3R,4R,5R)-2,3,4,5,6-pentahydroxyhexyl]acetamide]
11 | < 100 | COCCCN(CCCC(C)c1ccc(Cl)c(CNC2(c3cnccc3-c3ccccc3OC3CC3)CC2)c1)C(=O)[C@@H](O)[C@@H](O)[C@H](O)[C@@H](O)CO (stereo partly drawn) [Compound I-284, (2S,3S,4R,5S)-N-(4-{4-chloro-3-[({1-[4-(2-cyclopropoxyphenyl)pyridin-3-yl]cyclopropyl}amino)methyl]phenyl}pentyl)-2,3,4,5,6-pentahydroxy-N-(3-methoxypropyl)hexanamide]
12 | < 100 | O=S(=O)(NCC(F)(F)F)c1ccc(Cl)c(COC2(c3cnccc3-c3ccccc3OC3CC3)CC2)c1 [Compound I-772, 4-chloro-3-((1-(4-(2-cyclopropoxyphenyl)pyridin-3-yl)cyclopropoxy)methyl)-N-(2,2,2-trifluoroethyl)benzenesulfonamide]
13 | < 100 | O=C(CCCCc1cc(Cl)c(COC2(c3cnccc3-c3ccccc3OC3CC3)CC2)cc1Cl)N(CC(O)CO)C[C@H](O)[C@@H](O)[C@H](O)[C@H](O)CO (stereo partly drawn) [Compound I-122, 5-(2,5-dichloro-4-((1-(4-(2-cyclopropoxyphenyl)pyridin-3-yl)cyclopropoxy)methyl)phenyl)-N-(2,3-dihydoxypropyl)-N-((2S,3R,4R,5R)-2,3,4,5,6-pentahydroxyhexyl) pentanamide]
14 | < 100 | CN(CCC(=O)NC[C@H](O)[C@@H](O)[C@H](O)[C@H](O)CO)S(=O)(=O)c1ccc(Cl)c(COC2(c3cnccc3-c3ccccc3OC3CC3)CC2)c1 [Compound I-434, 3-[N-methyl4-chloro-3-({1-[4-(2-cyclopropoxyphenyl)pyridin-3-yl]cyclopropoxy}methyl)benzenesulfonamido]-N-[(2S,3R,4R,5R)-2,3,4,5,6-pentahydroxyhexyl]propanamide]
15 | < 100 | CN(CCCCNC(=O)NC[C@H](O)[C@@H](O)[C@H](O)[C@H](O)CO)S(=O)(=O)c1cc(COC2(c3cnccc3-c3ccccc3OC3CC3)CC2)c(Cl)cc1F [Compound I-466, 1-{4-[N-methyl4-chloro-5-({1-[4-(2-cyclopropoxyphenyl)pyridin-3-yl]cyclopropoxy}methyl)-2-fluorobenzenesulfonamido]butyl}-3-[(2S,3R,4R,5R)-2,3,4,5,6-pentahydroxyhexyl]urea]
16 | < 100 | CN(CCCCc1cc(Cl)c(COC2(c3cnccc3-c3ccccc3OC3CC3)CC2)cc1Cl)C(=O)[C@@H](O)[C@@H](O)[C@H](O)[C@@H](O)CN1CCOCC1 (stereo in doubt) [Compound I-189, (2S,3S,4R,5S)-N-{4-[2,5-dichloro-4-({1-[4-(2-cyclopropoxyphenyl)pyridin-3-yl]cyclopropoxy}methyl)phenyl]butyl}-2,3,4,5-tetrahydroxy-N-methyl-6-(morpholin-4-yl)hexanamide]
17 | 1260 to 10000 | CN(Cc1cc(Cl)ccc1Cl)C1(c2cnccc2-c2ccccc2OC2CC2)CC1 [Compound I-58, 1-[4-(2-cyclopropoxyphenyl)pyridin-3-yl]-N-[(2,5-dichlorophenyl)methyl]-N-1-amine]
18 | < 100 | O=S(=O)(c1ccc(Cl)c(COC2(c3cnccc3-c3ccccc3OC3CC3)CC2)c1)N1CCCC1 [Compound I-395, 3-(1-{[2-chloro-5-(pyrrolidine-1-sulfonyl)phenyl]methoxy}cyclopropyl)-4-(2-cyclopropoxyphenyl)pyridine]
19 | < 100 | N[C@@H]1[C@@H](O)[C@@H](O[C@@H]2[C@@H](O)[C@H](O[C@H]3O[C@H](CNC(=O)CCCCc4cc(Cl)c(COC5(c6cnccc6-c6ccccc6OC6CC6)CC5)cc4Cl)[C@@H](O)[C@H](O)[C@H]3O)[C@@H](N)C[C@H]2N)O[C@H](CO)[C@H]1O (stereo in doubt) [Compound I-181, N-{[(2R,3S,4S,5R,6R)-6-{[(1R,2R,3S,4R,6S)-4,6-diamino-3-{[(2S,3R,4S,5S,6R)-4-amino-3,5-dihydroxy-6-(hydroxymethyl)oxan-2-yl]oxy}-2-hydroxycyclohexyl]oxy}-3,4,5-trihydroxyoxan-2-yl]methyl}-5-[2,5-dichloro-4-({1-[4-(2-cyclopropoxyphenyl)pyridin-3-yl]cyclopropoxy}methyl)phenyl]pentanamide]
20 | < 100 | CSc1ccc(Cl)c(CNC2(c3cnccc3-c3ccccc3OC3CC3)CC2)c1 [Compound I-23, N-{[2-chloro-5-(methylsulfanyl)phenyl]methyl}-1-[4-(2-cyclopropoxyphenyl)pyridin-3-yl]cyclopropan-1-amine]
21 | < 100 | CC(CCCN(CC1CCOCC1)C(=O)[C@@H](O)[C@@H](O)[C@H](O)[C@@H](O)CO)c1ccc(Cl)c(CNC2(c3cnccc3-c3ccccc3OC3CC3)CC2)c1 (stereo partly drawn) [Compound I-287, (2S,3S,4R,5S)-N-(4-{4-chloro-3-[({1-[4-(2-cyclopropoxyphenyl)pyridin-3-yl]cyclopropyl}amino)methyl]phenyl}pentyl)-2,3,4,5,6-pentahydroxy-N-(oxan-4-ylmethyl)hexanamide]
22 | < 100 | CC(C)N(C[C@H](O)[C@@H](O)[C@H](O)[C@H](O)CO)C(=O)CCCCc1cc(Cl)c(COC2(c3cnccc3-c3ccccc3OC3CC3)CC2)cc1Cl [Compound I-128, 5-[2,5-dichloro-4-({1-[4-(2-cyclopropoxyphenyl)pyridin-3-yl]cyclopropoxy}methyl)phenyl]-N-[(2S,3R,4R,5R)-2,3,4,5,6-pentahydroxyhexyl]-N-(propan-2-yl)pentanamide]
